These results are taken from ChEMBL document CHEMBL1157759, “Discovery of GS-9131: Design, synthesis and optimization of amidate prodrugs of the novel nucleoside phosphonate HIV reverse transcriptase (RT) inhibitor GS-9148” (Bioorg Med Chem, 2010).

SMILES strings stand for the structures. pEC50: −log10 of the molar value.

As a reminder, the bioavailability is the share of a dose that reaches the circulation, judged against a reference dose that is usually intravenous. A low value points to poor availability. Usually clearance stands for a measure of how efficiently the substance is removed, as volume per time. A higher clearance goes with a high capacity for elimination. What is called half-life is the time needed for the level to fall by half in the phase considered. Low values mean rapid decline, high ones slow decline. As a reminder, the pEC50 is the negative decadic logarithm of the EC50, by convention in mol/L. As usually defined, the amount remaining is what is left of the initial amount, in per cent.

A short description of series [1]: Oral bioavailability in Beagle dog. Conditions: in vivo.
Series [2] is described as follows: Clearance in iv dosed Beagle dog after 24 hrs. Conditions: in vivo.
Series [3] can be described thus: Half life in dog hepatocytes at 2 uM by LC/MS/MS analysis. The settings on record: for t1/2: 2 µM.
The next series concerns PBMC. The series can be described thus: Metabolic stability in cathepsin A-overexpressing human PBMC assessed as compound degradation per ug of protein at 10 uM after 120 mins by scintillation counting. The settings on record: 2 h, 30 µM.
A short description of series [4]: Half life in dog intestine S9 fraction at 2 uM by LC/MS/MS analysis. Conditions: intestine S9 fraction, t1/2.
Series [5] can be described thus: Hydrolytic stability assessed as compound degradation per ug of protein at 10 uM after 90 mins by scintillation counting in presence of human recombinant cathepsin A. The settings on record: 1.5 h.
The subject of series [6] is Human immunodeficiency virus 1. The series can be described thus: Antiviral activity against HIV1 3B infected in human MT2 cells assessed as inhibition of virus-induced cytopathic effect after 5 days by XTT assay. In kind it is functional, organism-based. (Protection from cytopathic effect is a common read-out in antiviral testing.)
The nature of series [7]: Bioavailability in iv dosed Beagle dog. The settings on record: in vivo.
Series [8] in a line: Half life in human intestine S9 fraction at 2 uM by LC/MS/MS analysis.
Series [9] can be described thus: Cytotoxicity against human MT2 cells after 5 days by XTT assay. (Tetrazolium assays rely on reduction of a dye to a coloured formazan, in cell work by metabolically active cells.)
Series [10] in a line: Half life in human hepatocytes at 2 uM by LC/MS/MS analysis. Conditions: t1/2.
The nature of series [11]: Metabolic stability in dog plasma assessed as compound remaining after 60 mins.
The next series is filed under the species Homo sapiens. The series can be described thus: in vitro. Conditions: plasma.
Series [12] is described as follows: Cytotoxicity against human HepG2 cells assessed as inhibition of mitochondrial DNA replication after 14 days. The settings on record: read-out: MTC50.
The mark [13] stands for this setting: Human immunodeficiency virus 1, 3B, MT2, 120 h.

On to `CC(C)OC(=O)[C@H](C)N[P@](=O)(CO[C@H](C)Cn1cnc2c(N)ncnc21)Oc1ccccc1` [TENOFOVIR ALAFENAMIDE], for which the bioavailability in series [1] was found to be 21%. In series [2], this compound gave a clearance at 24 h of 37.2 mL/min/kg.

As to `C[C@H](NP(=O)(CO[C@@H]1C=C(F)[C@H](n2cnc3c(N)ncnc32)O1)Oc1ccccc1)C(=O)OC1CCC1.Cl.Cl` (stereo partly specified), the half-life at 2 µM in series [3] (t1/2) came to 52 min; in series [4], 3.9 min. The Activity in the series on PBMC is reported as 19 pmol/min; in series [5], 23997 pmol/min. Besides, the pEC50 in [6] (mt2) was 7.68. This compound also came in with a bioavailability in [7] of 18%.

As for `CC(C)OC(=O)[C@H](C)NP(=O)(CO[C@@H]1C=C(F)[C@H](n2cnc3c(N)ncnc32)O1)Oc1ccccc1` (stereo in doubt; 24) [(2S)-ISOPROPYL 2-(((2R,5R)-5-(6-AMINO-9H-PURIN-9-YL)-4-FLUORO-2,5-DIHYDROFURAN-2-YLOXY)(PHENOXY)PHOSPHORYLAMINO)PROPANOATE (ENANTIOMERIC MIX)], the t1/2 in series [3] is given as 103 min. Moreover, the Activity with PBMC was 20 pmol/min; in series [5], 35000 pmol/min. For the same compound, the half-life at 2 µM came out at 15 min in series [4], 106 min in series [8] and 159 min in [10]. In addition, in [6] (mt2), the pEC50 was 8.04. Further, the CC50 at 120 h in [9] turned out to be 139000 nM.

Regarding `CCCCOC(=O)[C@H](CC)NP(=O)(CO[C@@H]1C=C(F)[C@H](n2cnc3c(N)ncnc32)O1)N[C@@H](CC)C(=O)OCCCC`, in series [3] (t1/2), the half-life at 2 µM is 73 min. Moreover, the Activity with PBMC came out at 1.3 pmol/min; in [5], 1872 pmol/min. Further, the negative logarithm of the EC50 (pEC50) in series [6] (setting [13]) was 7.05. In addition, the CC50 at 120 h in series [9] was more than 100000 nM. Also, the fraction remaining at 1 h turned out to be 100% in series [11] (Stability) and 99% in the series filed under Homo sapiens (Stability).

In the case of `C[C@H](Cn1cnc2c(N)ncnc21)OCP(=O)(O)O` [TENOFOVIR ANHYDROUS], the pEC50 in series [6] (setting [13]) is 7.89. This compound also came in with a CC50 at 120 h in series [9] of more than 50000 nM. Also, the CC50 at 336 h in [12] was 3600 nM.

In series [3], `C[C@H](NP(=O)(CO[C@@H]1C=C(F)[C@H](n2cnc3c(N)ncnc32)O1)Oc1ccccc1)C(=O)OC1CCC1` (stereo in doubt; 18r) [(2S)-CYCLOBUTYL 2-((((2R,5R)-5-(6-AMINO-9H-PURIN-9-YL)-4-FLUORO-2,5-DIHYDROFURAN-2-YLOXY)METHYL)(PHENOXY)PHOSPHORYLAMINO)PROPANOATE (ENANTIOMERIC MIX)] came in with a t1/2 of 100 min. Further, the Activity with PBMC stood at 7.7 pmol/min; in series [5], 18150 pmol/min. Moreover, the half-life at 2 µM in series [4] is 25 min; in series [8], 122 min; in series [10] it was 98 min. Also, in series [6] (mt2), the pEC50 was 7.44. The compound further showed a CC50 at 120 h in series [9] of 57000 nM. This compound also showed a clearance at 24 h in [2] of 46 mL/min/kg.

In the case of `CC(C)COC(=O)[C@H](Cc1ccccc1)NP(=O)(CO[C@@H]1C=C(F)[C@H](n2cnc3c(N)ncnc32)O1)Oc1ccccc1` (stereo partly specified), the half-life at 2 µM in series [3] (t1/2) is 28 min; in series [4] it was 8.3 min. Further, the Activity with PBMC is recorded as 31 pmol/min; in series [5], 29655 pmol/min. In addition, the bioavailability in [1] worked out at 2.6%. Also, in series [6] (setting [13]), the pEC50 is 8.22. Further, the CC50 at 120 h in series [9] was 38300 nM. Moreover, in series [2], the clearance at 24 h was 61.7 mL/min/kg.

`CCCCOC(=O)[C@H](C)NP(=O)(CO[C@@H]1C=C(F)[C@H](n2cnc3c(N)ncnc32)O1)N[C@@H](C)C(=O)OCCCC` returned a half-life at 2 µM in series [3] of 48 min. For the same compound, the results for the Activity (in the series on PBMC; in series [5]) were 18 pmol/min and 17355 pmol/min, respectively. Also, the pEC50 in [6] (setting [13]) was 7.17. The same compound yielded a CC50 at 120 h in [9] of 51000 nM. Also, the share remaining at 1 h in [11] is 100%; in the series filed under Homo sapiens, 96%. Besides, the clearance at 24 h in [2] is 53.7 mL/min/kg.
